From ChEMBL document CHEMBL1124714, “Synthesis and in vitro activity of stereoisomers of a novel thromboxane receptor antagonist, (+-)-(5Z)-7-[3-endo-[(phenylsulfonyl)amino]bicyclo [2.2.1]hept-2-exo-yl]heptenoic acid” (J Med Chem, 1990)

Legend:
Format in all cases: functional, organism-based
Rattus norvegicus [1] = organism: Rattus norvegicus; assay: Inhibitory activity against rat thoracic aorta(induced by 30 nM of U-46619)
Rattus norvegicus [2] = organism: Rattus norvegicus; assay: Inhibitory activity against aggregation of rat washed platelets (induced by 4 ug/mL of collagen)
Homo sapiens = organism: Homo sapiens; assay: Inhibitory activity against aggregation of human platelet-rich plasma(induced by 4 uM of U-46619)

IC50 (Rattus norvegicus [1]) [nM] | IC50 (Rattus norvegicus [2]) [nM] | IC50 (Homo sapiens) [nM] | Compound
37.2 | 4.1 | 2500 | O=C(O)CCC/C=C\C[C@@H]1C2CC[C@@H](C2)[C@@H]1NS(=O)(=O)c1ccccc1
16.9 | 2.9 | 3300 | O=C(O)CCC/C=C\C[C@@H]1C2CC[C@@H](C2)[C@H]1NS(=O)(=O)c1ccccc1
1800 | 260 | 7200 | O=C(O)COc1ccc(CCNS(=O)(=O)c2ccccc2)cc1 [SULOTROBAN]
1.4 | 2.9 | 450 | O=C(O)CCC/C=C\C[C@H]1C2CC[C@@H](C2)[C@@H]1NS(=O)(=O)c1ccccc1
 |  | 60 | O=C(O)CCC/C=C\C[C@@H]1[C@H](CNNC(=O)Nc2ccccc2)[C@H]2CC[C@H]1O2
